In patent publication EP3219329A1, “COMBINATIONS OF COPANLISIB” (Bayer Pharma Aktiengesellschaft, priority 2016, dated 2017):

Test system: primary (PDX) human lymphoma model LY2298
Assay: In vivo B cell lymphoma xenograft model (PDX)
Source text: Anti-tumor activity of cpd. B has been analyzed in murine xenograft models. For that purpose tumor fragments from stock mice inoculated with primary human lymphoma tissue were harvested and used for inoculation into female NOD/SCID mice. Each mouse was inoculated subcutaneously at the right flank with primary (PDX) human lymphoma model LY2298 fragment (P7, 2-4 mm in diameter) for tumor development. The treatment was started when the average tumor size reached about 158 mm^3. Mice were allocated randomly into experimental groups according to their tumor sizes, 10 mice per group. The day was denoted as day 0. Treatments were administrated to tumor-bearing mice from day 1 through day 34. Treatment groups were: vehicle control, cpd. B monotherapy, cpd. A monotherapy and combination of cpd. B and cpd A (Table C). Body weights were determined twice per week. Changes in body weight were depicted as treatment related toxicities (>10% stop treatment, >20% termination). Tumor sizes were measured twice weekly in two dimensions using a caliper, and the volume is expressed in mm^3 using the formula: V = 0.5 a x b^2, where a and b are the long and short diameters of the tumor, respectively. The T/C value is an indicator of tumor response to treatment and commonly used as anti-tumor activity endpoint. T and C are the mean tumor volume of the treated and control groups, respectively. Statistical analysis of difference in tumor volume among the groups was evaluated using one-way ANOVA followed by pairweise comparison procedures (Dunett method). P < 0.05 was considered to be statistically significant.
B in monotherapy and combination therapy with cpd. A during treatment of human LY2298 ABC-DLBCL tumors. Cpd. B has been applied orally upon a dose of 20 mg/kg once daily. Cpd. A was applied intraveneously for 2 days followd by a 5 day treatment break upon a dose of 14 mg/kg. Cpd. […] Cpd. […] TABLE C: Anti-Tumor activity of cpd. B in monotherapy and combination with cpd. A in LY2298 PDX model in NOD/SCID mice.

## COc1c(OCCCN2CCOCC2)ccc2c1N=C(NC(=O)c1cnc(N)nc1)N1CCN=C21.Cl.Cl [cpd. A, 2-amino-N-[7-methoxy-8-(3-morpholin-4-ylpropoxy)-2,3-dihydroimid-azo[1,2-c]quinazolin-5-yl]pyrimidine-5-carboxamide dihydrochloride]
LY2298 PDX in NOD/SCID mice, cpd. B 20 mg/kg QD p.o., cpd. A 14 mg/kg QD 2on/5off i.v., maximum mean loss as percent of starting weight
  Max. body weight loss (%): -5%
LY2298 PDX in NOD/SCID mice, cpd. B 20 mg/kg QD p.o., cpd. A 14 mg/kg QD 2on/5off i.v., mean tumor volume treated/control, * P<0.05 vs. Vehicle
  T/C Volume (at day 20): 0.22*
LY2298 PDX in NOD/SCID mice, cpd. B 20 mg/kg QD p.o., cpd. A 14 mg/kg QD 2on/5off i.v., number of tumors per response class, 10 mice per group
  Response (at termination): 7x PD, 1x SD, 1x PR, 1x CR
Human LY2298 ABC-DLBCL tumors, cpd. B 20 mg/kg once daily orally, cpd. A 14 mg/kg i.v. 2 days on, 5 days break, result in words
  anti-tumor activity: initially a strong anti-tumor activity but after 20 treatment days a clear tumor relapse
